# How the values were obtained:
# Assay type in all cases: biochemical
# Ikkb = biological target: T1, Ikkb (Homo sapiens, UniProt O14920); test: LabChip (Caliper) kinase assay, Ikkb; conditions: for inhibition at 0.01 µM: compound at 10 nM; for inhibition at 0.01 µM / inhibition at 0.1 µM: read-out: remaining kinase activity (in %) / percentage of inhibition; for inhibition at 0.1 µM: compound at 100 nM; for IC50: ATP at Km, read-out: CI50 (the source's name)
# T1 sequence (O14920 1-756): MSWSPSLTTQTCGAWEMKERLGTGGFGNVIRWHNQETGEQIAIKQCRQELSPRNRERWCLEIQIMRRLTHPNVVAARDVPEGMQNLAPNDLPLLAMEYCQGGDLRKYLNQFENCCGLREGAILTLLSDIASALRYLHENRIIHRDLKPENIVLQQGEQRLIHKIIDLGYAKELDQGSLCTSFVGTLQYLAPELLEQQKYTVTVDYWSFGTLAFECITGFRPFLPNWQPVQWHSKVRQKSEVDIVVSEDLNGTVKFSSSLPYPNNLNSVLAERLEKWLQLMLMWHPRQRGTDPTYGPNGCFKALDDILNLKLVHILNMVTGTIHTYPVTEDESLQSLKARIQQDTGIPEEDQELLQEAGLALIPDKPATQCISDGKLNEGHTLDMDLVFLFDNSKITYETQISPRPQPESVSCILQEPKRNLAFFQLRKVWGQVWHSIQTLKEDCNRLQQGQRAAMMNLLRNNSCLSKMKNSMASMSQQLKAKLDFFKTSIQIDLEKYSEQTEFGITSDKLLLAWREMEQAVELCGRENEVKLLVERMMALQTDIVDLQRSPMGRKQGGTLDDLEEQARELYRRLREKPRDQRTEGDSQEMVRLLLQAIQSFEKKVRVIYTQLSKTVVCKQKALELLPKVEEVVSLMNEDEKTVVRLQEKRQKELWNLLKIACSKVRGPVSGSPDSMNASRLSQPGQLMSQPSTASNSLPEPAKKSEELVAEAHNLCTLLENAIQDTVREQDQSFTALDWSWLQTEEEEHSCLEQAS
# Description: (§1) The analysis of kinase activity described here was performed using LabChip (Caliper Life Sciences), specifically the Caliper LC3000 and the EZ Reader II instruments.
# (§2) The kinase assay used measures the conversion of a fluorescent peptide (substrate) to a phosphorylated product. The reaction mixture, in a microplate well, is introduced by a capillary in a chip where the non-phosphorylated substrate and the phosphorylated product are separated by […]. The intensity of the fluorescent signal over time is related to the reaction progress. The phosphorylated product migrates quicker than the non-phosphorylated substrate and the signals of the two forms of the peptide appear as differentiated peaks. The Caliper determines the peak height and calculates the ratio of product to the peak sum (P/(P+S)). This value is used to compare wells with compounds and wells with controls and thus determine the % of inhibition for the given product.
# (§3) The followings kinases were used for the enzymatic inhibition studies, between brackets the value of the Michaelis-Menten constant, Km, of the ATP (Adenosine triphosphate) for each kinase, in μM: obtained from Carna Biosciences: MAPKAPK2 (4.6), AurA (3.6), AurB (5), PKCζ (3.8), RSK1 (23.3), PRAK (5), Erk1 (33.4), PKD2 (32.1), CK1d (16.3), CHK1 (33), ABL (61.7), FYN (36), LYNa (17), CHK2 (57.8), MET (79.5), LCK (28.5), SRC (38), GSK3β (7.3), Erk2 (62.1), PKACα (1.7), AKT2 (186.1), INSR (871.8), p38a (396.5), AKT1(48), MSK1 (21.2), PKCβ2 (84.8), ROCK2 (3.3), PIM2 (4.9), AMPK (38.6), KDR (164.8), IRAK4 (196.5), SGK1 (121.8), SYK (33.5); obtained from Invitrogen: CDK2 (57.6), BTK (123), HGK (80); obtained from Upstate: MST2 (36.6), PKGα (16), PAK2 (1.9), IGF1R (320), FGFR1 (171), MARK1 (33), CAMK2δ (22.4), c-TAK1 (66), DYRK1a (18.1), CaMK4 (3.9), FLT3 (350), c-Raf (6.2), P70S6K (95).
# (§4) The compounds were dissolved in 100% DMSO and were diluted at 25 times the final concentration desired for the assay. In the case of the determination of Cl50, serial dilutions were made to reach eight concentrations and give rise to the inhibition curve. 1 μL of each concentration is transferred, in duplicate to a 384-well microplate. 12 μL of enzymatic buffer is added to each well containing purified kinase (several suppliers as indicated above), 100 mM HEPES, pH 7.5, 1 mM DTT (Calbiochem), 0.002% Brij-35 (Sigma) and also in presence of 10 mM MgCl2 as cofactor, except for INSR and IRAK4 wherein 10 mM MnCl2 is used instead of MgCl2. For the kinases CAMK26 and CAMK4, 1 mM CaCl2 and 6.7 μg/mL of calmodulin are also added. For KDR kinase, 0.05% of the CHAPSO detergent is added. For the c-Raf kinase, 10 mM MnCl2 is added. For PKCβ2 0.02 μg/mL of PS/PMA is added. For PKGα se 10 μM of cGMP (cyclic guanosine monophosphate) is added. The compound and the enzyme are left for 15 minutes preincubation and, then, the following are added to each well: 12 μL of peptide buffer/ATP containing 100 mM HEPES, pH 7.5, 1.5 μM peptide marker with fluorescein (specific for the corresponding kinase), ATP (at concentration KM), and 0.002% Brij-35 to start the reaction. Generally, the reactions are incubated for 1-1.5 h at ambient temperature to obtain an adequate conversion (15-40%) of the peptide to the phosphorylated product. The reactions were ended by the addition of 45 μL of buffer containing 0 mM EDTA. The microplates were read by the LabChip 3000 using a 12-channel LabChip. The P/(P+S) values were obtained as described above and the CI50 curves were generated using XIfit.
# (§5) Table 9a has the 0150 data obtained in pairs of compound-kinase selected from the compounds of formula (VII), (VIII), (IX), (XVI), (XVII) and (XVIII) after taking inhibition measurements at 100 nM and 10 nM. Those couples that provide >70% of inhibition at 10 nM were consider for measuring its IC50. […]
# FGFR3 = FGFR3 (Homo sapiens, UniProt P22607); test: LabChip (Caliper) kinase assay, FGFR3; conditions: read-out: remaining kinase activity (in %) / percentage of inhibition; for inhibition at 0.01 µM: compound at 10 nM; for inhibition at 0.1 µM: compound at 100 nM
# Sequence of FGFR3 (P22607 23-806, species assumed): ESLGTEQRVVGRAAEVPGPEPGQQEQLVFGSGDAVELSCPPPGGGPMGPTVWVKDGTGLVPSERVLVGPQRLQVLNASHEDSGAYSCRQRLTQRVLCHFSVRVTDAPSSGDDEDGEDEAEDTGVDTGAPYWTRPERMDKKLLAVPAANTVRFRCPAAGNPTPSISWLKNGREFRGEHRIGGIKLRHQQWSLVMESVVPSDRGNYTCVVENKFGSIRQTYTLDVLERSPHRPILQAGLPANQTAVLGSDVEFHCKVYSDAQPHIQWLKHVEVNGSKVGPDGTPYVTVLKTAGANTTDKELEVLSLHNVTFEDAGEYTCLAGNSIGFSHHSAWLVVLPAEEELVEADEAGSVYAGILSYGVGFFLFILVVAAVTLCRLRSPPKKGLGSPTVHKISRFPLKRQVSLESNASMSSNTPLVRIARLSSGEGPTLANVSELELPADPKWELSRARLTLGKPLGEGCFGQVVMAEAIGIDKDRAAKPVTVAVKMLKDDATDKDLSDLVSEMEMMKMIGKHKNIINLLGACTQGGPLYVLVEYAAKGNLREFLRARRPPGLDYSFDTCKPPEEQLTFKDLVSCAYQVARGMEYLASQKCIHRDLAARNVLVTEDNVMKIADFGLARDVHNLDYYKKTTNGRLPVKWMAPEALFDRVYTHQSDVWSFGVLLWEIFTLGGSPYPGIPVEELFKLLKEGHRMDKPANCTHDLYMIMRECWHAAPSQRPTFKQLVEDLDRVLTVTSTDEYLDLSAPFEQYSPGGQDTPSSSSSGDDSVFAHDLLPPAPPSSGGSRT
# Description: as §1, §2, §3, §4
# For example, the activity of the Dyrk1a kinase is inhibited in 87% by the compound of formula (III) and completely by the compound of formula (XII) when used at a concentration of 10 nM.
# KDR = biological target: T2, KDR (Homo sapiens, UniProt P35968); test: LabChip (Caliper) kinase assay, KDR; conditions: for inhibition at 0.01 µM: compound at 10 nM; for inhibition at 0.01 µM / inhibition at 0.1 µM: read-out: remaining kinase activity (in %) / percentage of inhibition; for inhibition at 0.1 µM: compound at 100 nM; for IC50: ATP at Km, read-out: CI50 (the source's name)
# T2 construct: purchased Carna Biosciences
# T2 sequence (P35968 20-1356): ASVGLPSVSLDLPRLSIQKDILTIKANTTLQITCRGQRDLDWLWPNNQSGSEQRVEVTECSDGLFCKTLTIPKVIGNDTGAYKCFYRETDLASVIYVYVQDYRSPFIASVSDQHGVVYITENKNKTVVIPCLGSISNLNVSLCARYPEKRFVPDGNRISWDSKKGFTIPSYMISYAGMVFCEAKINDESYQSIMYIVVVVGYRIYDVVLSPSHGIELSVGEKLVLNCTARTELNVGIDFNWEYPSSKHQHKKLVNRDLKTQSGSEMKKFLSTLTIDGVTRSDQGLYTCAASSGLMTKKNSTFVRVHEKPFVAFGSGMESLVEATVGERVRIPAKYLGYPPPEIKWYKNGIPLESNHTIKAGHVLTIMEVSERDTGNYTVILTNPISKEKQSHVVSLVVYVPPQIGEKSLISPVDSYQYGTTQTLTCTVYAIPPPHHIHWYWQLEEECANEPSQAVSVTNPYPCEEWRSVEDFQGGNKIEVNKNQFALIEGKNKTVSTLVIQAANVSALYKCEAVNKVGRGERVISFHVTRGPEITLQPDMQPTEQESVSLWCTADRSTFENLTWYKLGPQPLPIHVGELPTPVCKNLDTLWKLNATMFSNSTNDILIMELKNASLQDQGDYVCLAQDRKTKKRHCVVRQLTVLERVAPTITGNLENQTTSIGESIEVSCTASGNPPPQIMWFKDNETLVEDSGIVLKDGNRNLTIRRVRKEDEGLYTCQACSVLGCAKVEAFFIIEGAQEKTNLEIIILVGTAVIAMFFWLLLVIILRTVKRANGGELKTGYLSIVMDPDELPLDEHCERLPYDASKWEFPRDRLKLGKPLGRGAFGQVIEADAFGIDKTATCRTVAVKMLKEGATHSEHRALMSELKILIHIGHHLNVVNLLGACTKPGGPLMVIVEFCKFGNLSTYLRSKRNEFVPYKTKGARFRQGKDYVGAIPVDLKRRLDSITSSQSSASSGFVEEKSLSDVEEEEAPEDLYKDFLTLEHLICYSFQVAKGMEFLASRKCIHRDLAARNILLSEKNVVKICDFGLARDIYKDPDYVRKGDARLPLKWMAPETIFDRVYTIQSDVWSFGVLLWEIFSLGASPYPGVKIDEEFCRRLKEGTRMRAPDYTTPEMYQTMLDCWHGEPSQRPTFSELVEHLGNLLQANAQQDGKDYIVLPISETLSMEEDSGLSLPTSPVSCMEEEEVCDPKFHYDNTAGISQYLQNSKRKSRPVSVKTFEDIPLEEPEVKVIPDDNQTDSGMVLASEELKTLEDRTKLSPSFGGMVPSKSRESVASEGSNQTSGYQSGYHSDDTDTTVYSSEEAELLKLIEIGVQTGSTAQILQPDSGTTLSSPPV
# Description: as §1, §2, §3, §4, §5
# HGK = biological target: T3, HGK (Homo sapiens, UniProt O95819); test: LabChip (Caliper) kinase assay, HGK; conditions: for inhibition at 0.01 µM: compound at 10 nM; for inhibition at 0.01 µM / inhibition at 0.1 µM: read-out: remaining kinase activity (in %) / percentage of inhibition; for inhibition at 0.1 µM: compound at 100 nM; for IC50: ATP at Km, read-out: CI50 (the source's name)
# T3 construct: purchased Invitrogen
# T3 sequence (O95819 whole entry, species assumed): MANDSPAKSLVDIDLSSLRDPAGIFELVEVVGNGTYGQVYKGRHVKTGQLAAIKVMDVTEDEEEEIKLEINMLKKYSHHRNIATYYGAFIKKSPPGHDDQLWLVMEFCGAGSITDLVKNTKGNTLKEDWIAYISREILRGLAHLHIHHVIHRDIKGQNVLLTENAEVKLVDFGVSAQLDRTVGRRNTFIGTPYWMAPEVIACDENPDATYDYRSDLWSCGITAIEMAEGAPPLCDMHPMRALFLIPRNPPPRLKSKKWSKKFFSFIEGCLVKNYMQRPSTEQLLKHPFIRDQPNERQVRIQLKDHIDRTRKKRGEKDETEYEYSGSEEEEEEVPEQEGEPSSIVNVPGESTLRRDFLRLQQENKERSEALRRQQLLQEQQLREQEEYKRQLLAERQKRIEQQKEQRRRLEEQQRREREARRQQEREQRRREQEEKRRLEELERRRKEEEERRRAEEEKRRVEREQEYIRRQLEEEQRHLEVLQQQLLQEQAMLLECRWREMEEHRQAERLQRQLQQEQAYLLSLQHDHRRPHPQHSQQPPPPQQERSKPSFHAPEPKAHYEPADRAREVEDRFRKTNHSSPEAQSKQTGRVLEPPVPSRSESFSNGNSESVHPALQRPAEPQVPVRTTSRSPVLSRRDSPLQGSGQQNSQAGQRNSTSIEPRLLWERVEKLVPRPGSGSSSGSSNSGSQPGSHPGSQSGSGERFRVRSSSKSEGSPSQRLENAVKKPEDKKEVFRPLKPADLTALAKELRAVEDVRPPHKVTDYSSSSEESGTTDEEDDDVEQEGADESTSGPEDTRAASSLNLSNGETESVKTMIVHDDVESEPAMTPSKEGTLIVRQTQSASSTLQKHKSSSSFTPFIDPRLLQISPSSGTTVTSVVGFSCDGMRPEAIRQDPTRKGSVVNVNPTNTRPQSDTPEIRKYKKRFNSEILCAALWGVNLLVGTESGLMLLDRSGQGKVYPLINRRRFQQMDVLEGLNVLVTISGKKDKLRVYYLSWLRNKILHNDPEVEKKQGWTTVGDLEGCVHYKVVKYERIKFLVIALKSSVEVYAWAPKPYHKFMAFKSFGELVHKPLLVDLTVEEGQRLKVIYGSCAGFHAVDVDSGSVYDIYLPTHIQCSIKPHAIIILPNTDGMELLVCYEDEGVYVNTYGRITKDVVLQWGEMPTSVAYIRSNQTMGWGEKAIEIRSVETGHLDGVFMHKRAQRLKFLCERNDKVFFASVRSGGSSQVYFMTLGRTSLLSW
# Description: as §1, §2, §3, §4, §5
Structure (SMILES),inhibition at 0.01 µM (Ikkb),inhibition at 0.1 µM (Ikkb),inhibition at 0.01 µM (FGFR3),inhibition at 0.1 µM (FGFR3),inhibition at 0.01 µM (KDR),inhibition at 0.1 µM (KDR),inhibition at 0.01 µM (HGK),inhibition at 0.1 µM (HGK),IC50 (Ikkb),IC50 (KDR),IC50 (HGK)
"C[C@H]1O[C@@H](n2c3ccccc3c3c4c(c5c6ccccc6[nH]c5c32)CNC4=O)C[C@@H](O)[C@@H]1O [formula (XV), N^13-1′-β-D-olivosyl-k252c]",-5%,16%,-20%,-13%,-4%,18%,36%,89%,–,–,–
"C[C@]12O[C@H](C[C@@H](O)[C@H]1O)n1c3ccccc3c3c4c(c5c6ccccc6n2c5c31)CNC4=O [formula (XVIII), N^12-5′(S)-N^13-1′-(R)-L-digitoxosyl-k252c]",–,–,–,–,–,–,–,–,> 100 nM,> 10 nM,> 10 nM
"C[C@]12O[C@H]([C@H](O)[C@H](O)[C@H]1O)n1c3ccccc3c3c4c(c5c6ccccc6n2c5c31)C(=O)NC4=O [formula (VII), N^12-5′(S)-N^13-1′-(R)-L-rhamnosylarcyriaflavin]",–,–,–,–,–,–,–,–,0.17 nM,3.7 nM,0.78 nM
"C[C@@H]1O[C@@H](n2c3ccccc3c3c4c(c5c6ccccc6[nH]c5c32)C(=O)NC4=O)C[C@H](O)[C@H]1O [formula (IV), N^13-1′-β-L-olivosylarcyriaflavin]",9%,60%,-6%,3%,21%,68%,9%,62%,–,–,–
"C[C@H]1O[C@@H](n2c3ccccc3c3c4c(c5c6ccccc6[nH]c5c32)C(=O)NC4=O)C[C@@H](O)[C@@H]1O [formula (VI), N^13-1′-β-D-olivosylarcyriaflavin]",7%,50%,-8%,-11%,2%,40%,35%,83%,–,–,–
"C[C@@H]1O[C@@H](n2c3ccccc3c3c4c(c5c6ccccc6[nH]c5c32)CNC4=O)C[C@@H](O)[C@H]1O [formula (XIV), N^13-1′-β-L-digitoxosyl-k252c]",27%,24%,-6%,-11%,1%,16%,20%,78%,–,–,–
"C[C@@H]1O[C@@H](n2c3ccccc3c3c4c(c5c6ccccc6[nH]c5c32)CNC4=O)C[C@H](O)[C@H]1O [formula (XIII), N^13-1′-β-L-olivosyl-k252c]",-5%,33%,-4%,-6%,7%,48%,16%,76%,–,–,–
"C[C@@H]1O[C@@H](n2c3ccccc3c3c4c(c5c6ccccc6[nH]c5c32)C(=O)NC4=O)C[C@@H](O)[C@H]1O [formula (V), N^13-1′-β-L-digitoxosylarcyriaflavin]",37%,76%,-6%,-1%,28%,63%,54%,90%,–,–,–
"C[C@@H]1O[C@@H](n2c3ccccc3c3c4c(c5c6ccccc6[nH]c5c32)C(=O)NC4=O)[C@H](O)[C@H](O)[C@H]1O [formula (III), N^13-1′-β-L-rhamnosylarcyriaflavin]",-10%,32%,-10%,-4%,-7%,21%,30%,89%,–,–,–
"C[C@@H]1O[C@@H](n2c3ccccc3c3c4c(c5c6ccccc6[nH]c5c32)CNC4=O)[C@H](O)[C@H](O)[C@H]1O [formula (XII), N^13-1′-β-L-rhamnosyl-k252c]",-5%,12%,-2%,-1%,-1%,6%,44%,91%,–,–,–
"C[C@]12O[C@H](C[C@H](O)[C@H]1O)n1c3ccccc3c3c4c(c5c6ccccc6n2c5c31)C(=O)NC4=O [formula (VIII), N^12-5′(S)-N^13-1′-(R)-L-olivosylarcyriaflavin]",–,–,–,–,–,–,–,–,< 0.03 nM,0.55 nM,–
"C[C@]12O[C@H](C[C@@H](O)[C@H]1O)n1c3ccccc3c3c4c(c5c6ccccc6n2c5c31)C(=O)NC4=O [formula (IX), N^12-5′(S)-N^13-1′-(R)-L-digitoxosylarcyriaflavin]",–,–,–,–,–,–,–,–,> 10 nM,> 10 nM,> 10 nM

# Reference: US8598132B2, “Glycosylated indolocarbazoles, method for obtaining same and uses thereof” (Universidad de Oviedo, priority 2008, dated 2013)
